The subject of this test is 100% ethanol (EtOH)-induced gastric damage in rats. Nature of the test: 100% ethanol (EtOH)-induced gastric damage in rats, gastric damage inhibition and mucus enhancement. The test is classed as in vivo, Sprague Dawley (SD) rats. To be noted: oral 3.0, 10.0 and 30.0 mg/kg, 1 hour before 100% EtOH. The protocol:
The inhibitory activity and defensive factor-enhancing effects of the compound prepared in Example 8 were measured using 100% ethanol (EtOH)-induced gastric damage model (Paul V. Tan et al., 2002, Journal of Ethnopharmacology, 82, p 69-74). Male Sprague Dawley (SD) rats (body weight 180-200 g) was fasted for 24 hours with free access to water. Control group was orally administered with 5 mL/kg of 0.5% methyl cellulose (MC) aqueous solution, and the other groups were orally administered with test compounds suspended in 0.5% MC aqueous solution at a dose of 3.0, 10.0 and 30.0 mg/kg/5 mL. For comparison, the compound of Example 134 (Comparative Example 1), the compound of Example 165 (Comparative Example 2) and the compound of Example 166 (Comparative Example 3) in International Patent Publication No. WO2006/036024 were orally administered at the same dose by suspending 0.5% MC aqueous solution, respectively. 1 hour after oral administration, 1 mL of 100% EtOH was orally administered. 1 hour after EtOH administration, the test animals were sacrificed to remove the stomach. Ten in the total 20 animals scraped the mucus of stomach with a slide glass and the mucus contents were analyzed to calculate ED50. […] The incised stomach was placed on a fixture, fixed by a fixing pin while spreading out using a forcep and then the gastric damage area was measured to calculate ED50.

In general, ED50 refers to the dose at which the effect has come halfway, by size or by number of responders.

The structures appear in SMILES notation.

`CNCc1cn(S(=O)(=O)c2cccc(F)c2)c(-c2ccc(F)cc2F)c1OC.Cl` [Example 8, 1-(5-(2,4-difluorophenyl)-1-((3-fluorophenyl)sulfonyl)-4-methoxy-1H-pyrrol-3-yl)-N-methylmethanamine hydrochloride]: the ED50 (Rattus norvegicus, read-out: Mucus secretion ED50) turned out to be 12.2 mg/kg. The “Gastric index ED50” value (gastric damage area) was 13.4 mg/kg.

Values taken from patent publication US10100010B1, “4-methoxy pyrrole derivatives or salts thereof and pharmaceutical composition comprising the same” (Daewoong Pharmaceutical Co., Ltd., priority 2015, dated 2018).
